The values that follow come from patent publication US9023763B2, “Modification of trehalose-6-phosphate levels in plants” (Isis Innovation Limited, priority 2011, dated 2015).

The nature of data set [1]: In vitro deprotection under UV light and sunlight, followed by mass spectrometry/TLC and P NMR. The format is physicochemical. To be noted: for deprotection time: 5 mM in phosphate buffer pH 7.4. The source says: Two experimental techniques were chosen for studying the progress of deprotection experiments i.e. i) Mass spectroscopy and TLC (spot), and ii) P NMR. Progress of the reactions was monitored by looking for the disappearance of peak corresponding to protected compounds and appearance of peak corresponding to T6P. The structure of completely uncaged compound i.e. T6P was established by 1D and 2D NMR.
Both experimental techniques were very efficient and reproducible to analyse the deprotection experiments. Five millimolar solutions of Examples 1 to 4 were prepared in phosphate buffer (pH 7.4) and the resulting solution was exposed to different wavelengths of UV light and sunlight to monitor deprotection at different time intervals.
After successful synthesis of protected-G6P(1-OMe) compounds their deprotection was carried out under various wavelength and power of UV light.

Data set [2] is described as follows: In-planta uptake after feeding to roots of seedlings, quantified by HPLC/LCMS. It is filed as in vivo, Arabidopsis thaliana. The conditions noted are these: for Uptake %: proportion of compound fed taken up by the plant, 72 h; for Uptake % / uptake in μg/10 mg of seedling / concentration at 72 h: Arabidopsis seedling; for uptake in μg/10 mg of seedling / concentration at 72 h: protected T6P compounds, after 72 h (3 days), n = 3; for concentration at 72 h: read-out: uptake in μg/10 mg of seedling; for in-planta uptake (in words): after 72 h. On the procedure: Aqueous solutions of each of Examples 1 to 4 were fed to roots of seedlings of Arabidopsis thaliana and after a certain period of time the aerial (shoot) part of seedling was harvested carefully and extracted in H2O:MeOH (1:1) under liquid nitrogen to get crude fresh plant extract. The crude fresh plant extract thus obtained was analysed by mass spec and using HPLC to quantify the amount of compound taken up.
An aqueous solution of NB-T6P (Example 1) was fed to the seedlings, at 1 mM final concentration, near to the root and uptake was monitored in freshly prepared extract after 24 h, 48 h and 72 h using both HPLC and mass technique.
The quantitative analysis of the compounds taken up into the plant was carried out using freshly prepared plant extract by LCMS and summarised data are given in Table 2.

The next data set has as its system Arabidopsis thaliana. Nature of the data set: Increased starch production in treated plants. The format is in vivo. To be noted: 0.1 mM in the media. On the procedure: Pre-stratified Arabidopsis thaliana seeds were sown in sterile culture on 0.5 mL solid medium (0.5× Murashige and Skoog with Gamborg's vitamins, 0.5% agar) in 0.5 mL tubes pierced with a small hole in the bottom. Tubes were arrayed in polystyrene racks and floated in liquid medium without added sucrose in Phytatrays. Seedlings were grown under 12 hr days under fluorescent lights giving 250 μmo/m^2/s, and 23° C. day/18° C. night temperatures. At 16-20 days after sowing the liquid medium was removed and the tubes were sealed with electrician's tape. All plants were topped up with 0.5×MS medium with no sucrose. Plants were treated with compound example 3, or water by adding example 3 to a final concentration of 0.1 mM in the media. On the third day plants were subjected to growth lights supplemented with UV light (8 W UV bulb) from a Gelman transilluminator (Model 51438) at a distance of 6 cm for 8 h. Plants were allowed to recover for a further day and the aerial parts were harvested at the end of the day, weighed and frozen in liquid nitrogen. Starch was extracted according to published methods, converted to glucose and measured as nmol glucose/gram fresh weight (Nature Protocol 2006, 1, 1342). Results are depicted in FIG. 6.

In a further data set the test system is SnRK1. Nature of the data set: SnRK1 assay (Plant Physiol. 2009, 149, 1860-1871). It is filed as biochemical. On the procedure: The compounds synthesised in Examples 1 to 4 were tested against the known target for T6P in vitro i.e. SnRK1, using the assay described in Plant Physiol. 2009, 149, 1860-1871.
T6P deprotected by treatment of NB-T6P (Example 1) under deprotection conditions of 125 W/365 nm radiation was included in SnRK1 assays (carried out in accordance with Plant Physiol. 2009, 149, 1860-1871) to determine its inhibition effect and compared to commercially available T6P from Sigma. The results are depicted in FIG. 3.

Where [3] appears, read: Arabidopsis thaliana, in vivo, 1 mM.

Read-outs that look alike come from different tables or passages of the source.

`COC1OC(COP(=O)(OC(C)c2ccccc2[N+](=O)[O-])OC(C)c2ccccc2[N+](=O)[O-])C(O)C(O)C1O` (mixture of isomers) [NPE-G6P(1-OMe)]: the “deprotection time of caged G6P(1-OMe)” value stood at 2 h in data set [1] (8 W/254 nm); 2 h in data set [1] (8 W/365 nm); 0.75 h in data set [1] (125 W/200-400 nm); 1.25 h in data set [1] (125 W/365 nm); 10 h in data set [1] (Sun light).

Regarding `COc1cc(COP(=O)(OCc2cc(OC)c(OC)cc2[N+](=O)[O-])OC[C@H]2O[C@H](OC)[C@H](O)[C@@H](O)[C@@H]2O)c([N+](=O)[O-])cc1OC` [DMNB-G6P(1-OMe)], the “deprotection time of caged G6P(1-OMe)” value in data set [1] (8 W/254 nm) turned out to be 10 h; in data set [1] (8 W/365 nm), 10 h; in data set [1] (125 W/200-400 nm), 2 h; in data set [1] (125 W/365 nm), 2 h; in data set [1] (Sun light) it was 10 h.

On to `O=[N+]([O-])c1ccccc1COP(=O)(OCc1ccccc1[N+](=O)[O-])OCC1O[C@H](O[C@H]2OC(CO)[C@@H](O)C(O)C2O)C(O)C(O)[C@@H]1O` (some centres unmarked) [Example 1, NB-T6P], for which the deprotection time in data set [1] (8 W/254 nm) is 240 min; in data set [1] (8 W/365 nm), 360 min; in data set [1] (125 W/200-400 nm) it was 15 min; in data set [1] (125 W/365 nm) it was 30 min; in data set [1] (Sun light), 360 min. In data set [2] (Arabidopsis thaliana, in vivo, 1 mM final concentration fed near the root, 24 h), this compound gave a concentration at 24 h of 263000 ng/g. In data set [2] (Arabidopsis thaliana, in vivo, 1 mM final concentration fed near the root, 48 h), the concentration at 48 h was found to be 605000 ng/g. The compound further showed an Uptake % in data set [2] of 14%. In addition, the “uptake in μg/10 mg of seedling” value in data set [2] was 26.39 μg/10 mg of seedling.

As for `COc1cc(COP(=O)(OCc2cc(OC)c(OC)cc2[N+](=O)[O-])OCC2O[C@H](O[C@H]3OC(CO)[C@@H](O)C(O)C3O)C(O)C(O)[C@@H]2O)c([N+](=O)[O-])cc1OC` (some centres unmarked) [Example 2, DMNB-T6P], the deprotection time turned out to be 600 min in data set [1] (8 W/254 nm); 600 min in data set [1] (8 W/365 nm); 60 min in data set [1] (125 W/200-400 nm); 60 min in data set [1] (125 W/365 nm); 480 min in data set [1] (Sun light). Moreover, the concentration at 72 h was 318000 ng/g in data set [2] (setting [3]) and 318000 ng/g in data set [2] (Arabidopsis thaliana, in vivo). Moreover, the “in-planta uptake (in words)” value in data set [2] is “taken up by the plant”. In data set [2], this compound showed an Uptake % of 1%.

Take `CC(OP(=O)(OCC1O[C@H](O[C@H]2OC(CO)[C@@H](O)C(O)C2O)C(O)C(O)[C@@H]1O)OC(C)c1ccccc1[N+](=O)[O-])c1ccccc1[N+](=O)[O-]` (some centres unmarked) [Example 3, NPE-T6P]: the deprotection time in data set [1] (8 W/254 nm) is on record as 90 min; in data set [1] (8 W/365 nm) it was 90 min; in data set [1] (125 W/200-400 nm) it was 10 min; in data set [1] (125 W/365 nm) it was 20 min; in data set [1] (Sun light) it was 90 min. Besides, in the data set on Arabidopsis thaliana (8 W UV for 8 h), the “increase in amount of starch produced relative to concentration of T6P released in-planta” value was “tenfold higher”. In addition, the “starch levels compared to plants treated with water only” value with Arabidopsis thaliana (growth lights plus 8 W UV bulb for 8 h on third day, harvested a day later, FIG. 6) is recorded as “significantly higher starch levels”. Further, the “in-planta uptake (in words)” value in data set [2] is listed as “taken up by the plant”. The compound further yielded an Uptake % in data set [2] of 18%. Moreover, the “uptake in μg/10 mg of seedling” value in data set [2] is 66.0 μg/10 mg of seedling.

`COc1cc(COP(=O)(O)OCC2O[C@H](O[C@H]3OC(CO)[C@@H](O)C(O)C3O)C(O)C(O)[C@@H]2O)c([N+](=O)[O-])cc1OC` (some centres unmarked) [Example 4, Mono-DMNB-T6P]: the deprotection time turned out to be 600 min in data set [1] (8 W/254 nm); 360 min in data set [1] (8 W/365 nm); 45 min in data set [1] (125 W/200-400 nm); 45 min in data set [1] (125 W/365 nm); 360 min in data set [1] (Sun light). Moreover, the concentration at 72 h in data set [2] (setting [3]) stood at 360000 ng/g; in data set [2] (Arabidopsis thaliana, in vivo), 360000 ng/g. Further, in data set [2], the “in-planta uptake (in words)” value is “taken up by the plant”. This compound had an Uptake % in data set [2] of 1%.

Take `O=P(O)(O)OC[C@H]1O[C@H](O[C@H]2O[C@H](CO)[C@@H](O)[C@H](O)[C@H]2O)[C@H](O)[C@@H](O)[C@@H]1O` [Example T6P, trehalose-6-phosphate]: the SnRK1 inhibition result is given as “inhibits SnRK1 in the same way as commercially available T6P” with SnRK1 (T6P obtained from deprotection of Example 1 (125 W/365 nm), 0.32 mM, FIG. 3) and “shows typical inhibition” with SnRK1 (in vitro, in duplicate, FIG. 1).

On to `COc1cc(COP(=O)(O)OC[C@H]2O[C@H](OC)[C@H](O)[C@@H](O)[C@@H]2O)c([N+](=O)[O-])cc1OC` [Mono-DMNB-G6P(1-OMe)], for which the “deprotection time of caged G6P(1-OMe)” value in data set [1] (8 W/254 nm) turned out to be 10 h; in data set [1] (8 W/365 nm) it was 10 h; in data set [1] (125 W/200-400 nm), 1.25 h; in data set [1] (125 W/365 nm), 1.25 h; in data set [1] (Sun light), 8 h.

Regarding `CO[C@H]1O[C@H](COP(=O)(OCc2ccccc2[N+](=O)[O-])OCc2ccccc2[N+](=O)[O-])[C@@H](O)[C@H](O)[C@H]1O` [NB-G6P(1-OMe)], the “deprotection time of caged G6P(1-OMe)” value in data set [1] (8 W/254 nm) turned out to be 6 h; in data set [1] (8 W/365 nm), 8 h; in data set [1] (125 W/200-400 nm) it was 0.75 h; in data set [1] (125 W/365 nm), 1.25 h; in data set [1] (Sun light), 8 h.
